Experimental data taken from patent US7884242B2, “N-heterocyclylphthaldiamides as insecticides” (Bayer CropScience AG, priority 2004, dated 2011).

Assays:
[1] = log P determination with LC-MS under acidic conditions, pH 2.7; assay type: physicochemical; conditions: reverse phase HPLC column (C 18)
Experimental: (§1) The determination of the log P values given in the above table and preparation examples is carried out in accordance with EEC directive 79/831 Annex V.A8 by HPLC (High Performance Liquid Chromatography) on a reverse phase column (C 18). Temperature: 43° C. The determination with LC-MS under acidic conditions is carried out at pH 2.7 with 0.1% aqueous formic acid and acetonitrile (contains 01% formic acid) as eluents; linear gradient from 10% acetonitrile to 95% acetonitrile. Calibration was is carried out with unbranched alkan-2-ones (with 3 to 16 carbon atoms) of known log P values (Determination of log P values by the retention times by linear interpolation between two sequential alkanones).

[2] = system: cotton aphid (Aphis gossypii); experiment: Aphis gossypii test; assay type: in vivo; conditions: for Death rate in % after 7d: cotton leaves immersed; for activity in Aphis gossypii test: statement in words
Experimental: [table] For the preparation of a suitable active compound formulation 1 part by weight of the active compound is mixed with the above amounts of solvent and emulsifier and the concentrate is diluted to the desired concentration with water containing emulsifier. Cotton leaves (Gossypium hirsutum) heavily infested with the cotton aphid (Aphis gossypii) are treated by immersion in the active compound preparation at the desired concentration. After the desired time the death rate in % is determined. Here 100% means that all aphids were killed; 0% means that no aphids were killed.

[3] = system: caterpillars of the fall army worm (Spodoptera frugiperda); experiment: Spodoptera frugiperda test (spray treatment); assay type: in vivo; conditions: for pest or weed control at 4 g/ha: Spodoptera frugiperda, 168 h, spray treatment, maize leaf sections, after 7 d, read-out: Death rate in % after 7d; for activity in Spodoptera frugiperda test (spray treatment): statement in words
Experimental: [table] For the preparation of a suitable active compound formulation 1 part by weight of the active compound is mixed with the above amounts of solvent and emulsifier and the concentrate is diluted to the desired concentration with water containing emulsifier. Maize leaf sections (Zea mays) are sprayed with an active compound preparation of the desired concentration and after drying infected with caterpillars of the fall army worm (Spodoptera frugiperda). After the desired time the activity in % is determined. Here 100% means that all caterpillars were killed; 0% means that no caterpillars were killed.

[4] = log P determination by HPLC on reverse phase column, pH 2.3; assay type: physicochemical; conditions: reverse phase HPLC column (C 18), reverse phase column (C 18), pH 2.3, 43° C.
Experimental: as §1, with “is carried out” for “with LC-MS”, “conditions” for “conditions is carried out”, “2.3” for “2.7”, “phosphoric” for “formic”, “acetonitrile” for “acetonitrile (contains 01% formic acid)”, “of” for “from”

[5] = system: green peach aphid (Myzus persicae); experiment: Myzus test (spray treatment); assay type: in vivo; conditions: for pest or weed control at 100 g/ha: Myzus persicae, in Brassica oleracea, 120 h, spray treatment, China cabbage slices, after 5 d, read-out: Death rate in % after 5d; for activity in Myzus test (spray treatment): statement in words
Experimental: [table] For the preparation of a suitable active compound formulation 1 part by weight of the active compound is mixed with the above amounts of solvent and emulsifier and the concentrate is diluted to the desired concentration with water containing emulsifier. China cabbage slices (Brassica pekinensis) that are infected with all stages of the green peach aphid (Myzus persicae) are sprayed with an active compound preparation at the desired concentration. After the desired time the activity in % is determined. Here 100% means that all aphids were killed; 0% means that no aphids were killed.

[6] = system: larvae of the mustard leaf beetle (Phaedon cochleariae); experiment: Phaedon test (spray treatment); assay type: in vivo; conditions: for activity in Phaedon test (spray treatment): statement in words
Experimental: [table] For the preparation of a suitable active compound formulation 1 part by weight of the active compound is mixed with the above amounts of solvent and emulsifier and the concentrate is diluted to the desired concentration with water containing emulsifier. China cabbage slices (Brassica pekinensis) are sprayed with an active compound preparation of the desired composition and after drying infected with larvae of the mustard leaf beetle (Phaedon cochleariae). After the desired time the activity in % is determined. Here 100% means that all beetle larvae were killed; 0% means that no beetle larvae were killed.

[7] = system: caterpillars of the diamond back moth (Plutella xylostella); experiment: Plutella test; assay type: in vivo; conditions: for Death rate in % after 7d: cabbage leaves dipped; for activity in Plutella test: statement in words
Experimental: [table] For the preparation of a suitable active compound formulation 1 part by weight of the active compound is mixed with the above amounts of solvent and emulsifier and the concentrate is diluted to the desired concentration with water containing emulsifier. Cabbage leaves (Brassica oleracea) are treated by dipping into the active compound preparation of the desired concentration and infected with caterpillars of the diamond back moth (Plutella xylostella) while the leaves were still wet. After the desired time the death rate is determined as %. Here 100% means that all caterpillars were killed; 0% means no caterpillars were killed.

[8] = Phaedon cochleariae, 168 h, spray treatment, China cabbage slices, after 7 d, read-out: Death rate in % after 7d

Compound	chromatographic logP [1]	Death rate in % after 7d ([2]; 100 ppm) [%]	activity in Aphis gossypii test [2]	pest or weed control at 4 g/ha [3] [%]	activity in Spodoptera frugiperda test (spray treatment) [3]	chromatographic logP [4]	pest or weed control at 100 g/ha [5] [%]	activity in Myzus test (spray treatment) [5]	pest or weed control at 4 g/ha ([6]; Phaedon cochleariae, 168 h, 4 g/ha, spray treatment, China cabbage slices, after 7 d, read-out: Death rate in % after 7d) [%]	activity in Phaedon test (spray treatment) [6]	pest or weed control at 100 g/ha [6, 8] [%]	Death rate in % after 7d ([7]; 0.16 ppm) [%]	activity in Plutella test [7]	Death rate in % after 7d ([2]; 20 ppm) [%]	Death rate in % after 7d ([7]; 0.8 ppm) [%]
Cc1sc(Cn2nc(C(F)(F)F)nc2C(F)(F)F)cc1N [IIIb-1, 5-{[3,5-bis(trifluoromethyl)-1H-1,2,4-triazol-1-yl]methyl}-2-methylthiophene-3-amine]	2.2														
Cc1nc(Cn2cc(C(F)(F)C(F)(F)F)c(C(F)(F)C(F)(F)F)n2)ncc1NC(=O)c1cccc(Cl)c1C(=O)N[C@@H](C)C[S+](C)[O-] (stereo partly shown) [Example 65]		80	good activity	100	good activity	2.91	100	good activity	100	good activity					
Cc1nc(CBr)ccc1[N+](=O)[O-] [VII-1, 6-(bromomethyl)-2-methyl-3-nitropyridine]	2.2														
Cc1nc(Cn2nc(C(F)(F)F)cc2C(F)(F)F)ccc1NC(=O)c1cccc(I)c1C(=O)N[C@@H](C)C[S+](C)[O-] (stereo partly shown) [Example 7]				100	good activity	2.42	90	good activity		good activity	90				
Cc1nc(Cn2nc(C(F)(F)F)cc2C(F)(F)F)ccc1NC(=O)c1cccc(I)c1C(=O)N[C@@H](C)CS(C)(=O)=O [Example 8]				100	good activity	2.8	100	good activity		good activity	100				
CSC[C@H](C)NC(=O)c1c(Cl)cccc1C(=O)Nc1ccc(Cn2nc(C(F)(F)F)cc2C(F)(F)F)nc1C [Example 1, N^1-(6-{[3,5-bis(trifluoromethyl)-1H-pyrazol-1-yl]methyl}-2-methylpyridin-3-yl)-3-chloro-N^2-[(1S)-1-methyl-2-(methylthio)ethyl]phthalamide]				100	good activity		100	good activity		good activity	100				
Cc1nc(Cn2nc(C(F)(F)F)nc2C(F)(F)F)ccc1NC(=O)c1cccc(I)c1C(=O)N[C@@H](C)C[S+](C)[O-] (stereo partly shown) [Example 13]				100	good activity	2.28	100	good activity		good activity	100	95	good activity		
Cc1sc(CO)cc1[N+](=O)[O-] [(5-methyl-4-nitro-2-thienyl)methanol]	1.4														
Cc1nc(Cn2nc(C(F)(F)F)cc2C(F)(F)F)ccc1NC(=O)c1cccc(Cl)c1C(=O)N[C@@H](C)C[S+](C)[O-] (stereo partly drawn) [Example 2, N^1-(6-{[3,5-bis(trifluoromethyl)-1H-pyrazol-1-yl]methyl}-2-methylpyridin-3-yl)-3-chloro-N^2-[(1S)-1-methyl-2-(methylsulphinyl)ethyl]phthalamide]				100	good activity		100	good activity		good activity	100				
Cc1nc(Cn2nc(C(F)(F)F)nc2C(F)(F)F)ccc1NC(=O)c1cccc(Cl)c1C(=O)N[C@@H](C)CS(C)(=O)=O [Example 16]		80	good activity	100	good activity	2.56	100	good activity		good activity	100	100	good activity		
CSC[C@H](C)NC(=O)c1c(Cl)cccc1C(=O)Nc1ccc(Cn2nc(C(F)(F)F)nc2C(F)(F)F)nc1C [Example 14]				100	good activity	3.39	90	good activity		good activity	90				
Cc1nc(Cn2nc(C(F)(F)F)nc2C(F)(F)F)ccc1NC(=O)c1cccc(Cl)c1C(=O)N[C@@H](C)C[S+](C)[O-] (stereo partly shown) [Example 15]				100	good activity	2.17	100	good activity		good activity	100				
Cc1nc(Cn2nc(C(F)(F)F)cc2C(F)(F)F)ncc1NC(=O)c1cccc(Cl)c1C(=O)N[C@@H](C)CS(C)(=O)=O [Example 34]				100	good activity	2.56		good activity							
CSC[C@H](C)NC(=O)c1c(I)cccc1C(=O)Nc1ccc(Cn2nc(C(F)(F)F)cc2C(F)(F)F)nc1C [Example 6]			good activity	100	good activity	3.68	100	good activity		good activity	100		good activity	95	100
CSC[C@H](C)NC(=O)c1c(Br)cccc1C(=O)Nc1cnc(Cn2nc(C(F)(F)F)cc2C(F)(F)F)nc1C [Example 18]				100	good activity	3.44	100	good activity							
CSC[C@H](C)NC(=O)c1c(Cl)cccc1C(=O)Nc1cnc(Cn2nc(C(F)(F)C(F)(F)F)nc2C(F)(F)F)nc1C [Example 30]				100	good activity	3.62	90	good activity							
